The values that follow come from ChEMBL document CHEMBL5614451, “Structure-Activity Relationship of Oxacyclo- and Triazolo-Containing Respiratory Syncytial Virus Polymerase Inhibitors” (ACS Med Chem Lett, 2024).

The nature of data set [1]: Intrinsic clearance in human liver microsome at 1 uM preincubated for 5 mins followed by NADPH addition measured upto 60 mins by LC-MS/MS analysis. In kind it is ADME. As to conditions: liver microsomes, time 65 min, read-out: CLH.
The nature of data set [2]: Inhibition of RSV RdRp L/P measured after 120 mins by SPA. The arrangement: species or system Respiratory syncytial virus.
Data set [3] in a line: Cytotoxicity against human HeLa cells incubated for 3 days by ATPlite analysis. In kind it is toxicity, cell-based. As to conditions: time 3 day. For orientation: ATP-based viability assays read luminescence as a measure of living cells.
Data set [4] relates to Respiratory syncytial virus. In words: Antiviral activity against RSV A2 expressing e-GFP infected in human HeLa cells incubated for 3 days by […]. Format: functional, organism-based. As to conditions: 72 h.
The nature of data set [5]: Intrinsic clearance in rat liver microsome at 1 uM preincubated for 5 mins followed by NADPH addition measured upto 60 mins by LC-MS/MS analysis. As to conditions: liver microsomes, time 65 min, read-out: CLH. Format: ADME.
For data set [6], the system named is Respiratory syncytial virus. In words: Antiviral activity against RSV. Format: functional, organism-based. As to conditions: human respiratory syncytial virus.
The nature of data set [7]: Inhibition of RSV RdRp L/P. Set-up: species or system Respiratory syncytial virus.

As a reminder, the IC50 is the concentration at which inhibition is half-maximal. Low values mean greater potency in that assay, high ones weaker potency in that assay. As a reminder, the CC50 is the concentration giving 50% cytotoxicity. Usually EC50 stands for the concentration needed to bring the measured effect to its halfway point. The low end stands for a more potent agent, the high end for a less potent agent. On to `COc1cc(-c2cn(CC3(c4cc(C(C)(C)O)c(F)c(-c5ccc(F)cc5)n4)CCCO3)nn2)cc2cccnc12` (stereo unspecified), for which, in data set [1], the microsomal CLint at 1 µM was more than 347 µL/min/mg. In data set [2], this compound showed an IC50 of 22 nM. The compound further showed a CC50 at 72 h in data set [3] of more than 5 µM. Besides, in data set [4], a half-maximal effect (EC50) was put at 108 nM.
In the case of `COc1cc(-c2cn(CC3(c4cc(C(C)(C)O)c(F)c(-c5ccc(F)cc5)n4)CCO3)nn2)cc2cccnc12` (stereo unspecified), the microsomal CLint at 1 µM in data set [1] was 54.2 µL/min/mg; in data set [5], 42.7 µL/min/mg. In data set [2], this compound came in with an IC50 of 4.1 nM. In addition, half-maximal cytotoxicity in data set [3] (CC50 at 72 h) was put at 23.6 µM. In addition, the EC50 in data set [4] was determined as 10 nM.
As to `COc1cc(-c2cn(C[C@](O)(c3cc(C(C)(C)O)c(F)c(-c4ccc(F)cc4)n3)C(F)(F)F)nn2)cc2cccnc12`, the microsomal CLint at 1 µM in data set [1] and in data set [5] was less than 7.7 µL/min/mg throughout. In addition, in data set [2], 16 nM corresponded to half-maximal inhibition (IC50). Besides, in data set [3], it took 13 µM to reach half-maximal cytotoxicity (CC50 at 72 h). In data set [4], this compound displayed an EC50 of 74 nM.
As to `COc1cc(C(=O)NCC2(c3cc(C(C)(C)O)c(F)c(-c4ccc(F)cc4)n3)CCCCO2)cc2cc(C)nnc12` (stereo unspecified), the microsomal CLint at 1 µM in data set [1] is more than 347 µL/min/mg. The compound also registered an IC50 in data set [2] of 44 nM. Further, the CC50 at 72 h in data set [3] was more than 25 µM. In addition, the EC50 in data set [4] is 170 nM.
In the case of `COc1cc(C(=O)NCC2(c3cc(C(C)(C)O)c(F)c(-c4ccc(F)cc4)n3)OCCC2=O)cc2cc(C)nnc12` (stereo unspecified), the microsomal CLint at 1 µM in data set [1] amounted to 110 µL/min/mg. In data set [2], this compound had an IC50 of 0.1 nM. Moreover, in data set [3], the CC50 at 72 h was more than 5 µM. In data set [4], this compound had an EC50 of 0.22 nM.
For the compound `COc1cc(C(=O)NCC2(c3cc(C(C)(C)O)c(F)c(-c4ccc(F)cc4)n3)OCCC23CC3)cc2cc(C)nnc12` (stereo unspecified), the microsomal CLint at 1 µM in data set [1] is more than 347 µL/min/mg. In data set [2], this compound registered an IC50 of 0.55 nM. This compound gave a CC50 at 72 h in data set [3] of more than 5 µM. In data set [4], this compound showed an EC50 of 0.41 nM.
For `COc1cc(C(=O)NCC2(c3cc(C(C)(C)O)c(F)c(-c4ccc(F)cc4)n3)CC(=O)CO2)cc2cc(C)nnc12` (stereo unspecified), the microsomal CLint at 1 µM in data set [1] amounted to 126 µL/min/mg. Besides, it took 2.5 nM to reach half-maximal inhibition in data set [2] (IC50). The half-maximal cytotoxic concentration (CC50) at 72 h in data set [3] is more than 5 µM. Moreover, a half-maximal effect in data set [4] (EC50) was put at 18 nM.
As for `COc1cc(-c2cn(CC(=O)c3cc(C(C)(C)O)c(F)c(-c4ccc(F)cc4)n3)nn2)cc2cccnc12`, the microsomal CLint at 1 µM in data set [1] is 14.3 µL/min/mg; in data set [5] it was 10.8 µL/min/mg. The same compound returned an IC50 in data set [2] of 77 nM. The same compound returned a CC50 at 72 h in data set [3] of more than 50 µM. In addition, in data set [4], a half-maximal effect (EC50) was put at 200 nM.
`COc1cc(C(=O)NC[C@](O)(c2cc(C(C)(C)O)c(F)c(-c3ccc(F)cc3)n2)C(F)(F)F)cc2cc(C)nnc12` yielded an EC50 in data set [6] of 0.38 nM. Besides, in data set [7], the IC50 was found to be 0.29 nM.
Consider `COc1cc(C(=O)NCC(=O)c2cc(C(C)(C)O)c(F)c(-c3ccc(F)cc3)n2)cc2cc(C)nnc12`, for which, in data set [1], the microsomal CLint at 1 µM was 9.5 µL/min/mg. In data set [2], this compound returned an IC50 of 3.4 nM. Also, half-maximal cytotoxicity in data set [3] (CC50 at 72 h) was put at 31 µM. The compound further displayed an EC50 in data set [4] of 6.5 nM.
The matching figures for `COc1cc(C(=O)NCC2(c3cc(C(C)(C)O)c(F)c(-c4ccc(F)cc4)n3)OCCC2O)cc2cc(C)nnc12` (stereo unspecified): 18.4 µL/min/mg, 1.9 nM, more than 5 µM and 0.13 nM.
As to `COc1cc(C(=O)NCC(O)(c2cc(C(C)(C)O)c(F)c(-c3ccc(F)cc3)n2)C(F)(F)F)cc2cccnc12` (stereo unspecified), the microsomal CLint at 1 µM in data set [1] is 12.1 µL/min/mg; in data set [5], 168 µL/min/mg. The IC50 in data set [2] was 0.63 nM. The same compound gave a CC50 at 72 h in data set [3] of 16 µM. In addition, the midpoint of the response in data set [4], the EC50, lay at 11 nM.
As for `COc1cc(C(=O)NCC2(c3cc(C(C)(C)O)c(F)c(-c4ccc(F)cc4)n3)CC(O)CO2)cc2cc(C)nnc12` (stereo unspecified), the microsomal CLint at 1 µM in data set [1] worked out at 14.6 µL/min/mg. Half-maximal inhibition in data set [2] (IC50) was put at 1.9 nM. Further, in data set [3], the CC50 at 72 h is more than 5 µM. This compound had an EC50 in data set [4] of 17 nM.
For `COc1cc(C(=O)NCC2(c3cc(C(C)(C)O)c(F)c(-c4ccc(F)cc4)n3)OCCO2)cc2cc(C)nnc12`, the microsomal CLint at 1 µM in data set [1] came to 13.3 µL/min/mg. Also, in data set [2], half-maximal inhibition (IC50) was put at 0.25 nM. Besides, the CC50 at 72 h in data set [3] was more than 50 µM. Also, the EC50 in data set [4] was 1.2 nM.
The matching figures for `COc1cc(C(=O)NCC2(c3cc(C(C)(C)O)c(F)c(-c4ccc(F)cc4)n3)CC(F)(F)CO2)cc2cc(C)nnc12` (stereo unspecified): 117 µL/min/mg, 0.78 nM, more than 5 µM and 2.3 nM.
The matching figures for `COc1cc(C(=O)NCC2(c3cc(C(C)(C)O)c(F)c(-c4ccc(F)cc4)n3)CCCO2)cc2cc(C)nnc12` (stereo unspecified): more than 20 µL/min/mg, 0.8 nM, 18 µM and 0.73 nM.
